Measured values from patent US11584765B2 (priority 2017, dated 2023).

test system: C57BL/6 mice; assay: animal or person; assay type: in vivo; conditions: Mus musculus, sc, 0.5 h, s.c. administration, 30 min, 55° C. water, read-out: ED50 (mg/kg) at 30 min on C57BL/6 mice in Warm-water Tail-flick Test

SMILES	ED50 [mg/kg]
CCOCC1(CCc2ccccc2)CCN(Cc2ccc3[nH]c(=O)[nH]c3c2)CC1 [Compound 108, 5-((4-(ethoxymethyl)-4-phenethylpiperidin-1-yl)methyl)-1H-benzo[d]imidazol-2(3H)-one]	> 10
CCOCC1(CCc2ccccc2)CCN(Cc2ccc(-c3cn[nH]n3)cc2)CC1 [Compound 153, 1-(4-(2H-1,2,3-triazol-4-yl)benzyl)-4-(ethoxymethyl)-4-phenethylpiperidine]	> 10
CCOCC1(CCc2ccccc2)CCN(Cc2ccc(Nc3cnccn3)cc2)C1 (centres unmarked) [Compound 206, N-(4-((3-(ethoxymethyl)-3-phenethylpyrrolidin-1-yl)methyl)phenyl)pyrazin-2-amine]	> 10
CCOCC1(CCc2ccccc2)CCN(Cc2ccccc2-c2cccs2)C1 (centres unmarked) [Compound 316, 3-(ethoxymethyl)-3-phenethyl-1-(2-(thiophen-2-yl)benzyl)pyrrolidine]	> 10
CC(=O)Nc1ccc(CN2CCC(CCc3ccccc3)(c3ccccn3)CC2)cc1 [Compound 5]	< 10
CCOC[C@@]1(CCc2ccsc2C)CCN(Cc2cccnc2)C1 [Compound 464, (S)-3-((3-(ethoxymethyl)-3-(2-(2-methylthiophen-3-yl)ethyl)pyrrolidin-1-yl)methyl)pyridine]	< 10
CCOCC1(CCc2ccccc2)CCN(N(C)c2ccc(C)nc2)C1 (centres unmarked) [Compound 438, N-(3-(ethoxymethyl)-3-phenethylpyrrolidin-1-yl)-N,6-dimethylpyridin-3-amine]	> 10
CC(=O)Nc1ccc(CN2CCC(CCc3ccccc3)(COc3ccccn3)CC2)cc1 [Compound 123, N-(4-((4-phenethyl-4-((pyridin-2-yloxy)methyl)piperidin-1-yl)methyl)phenyl)acetamide]	> 10
CCOCC1(CCc2ccsc2C)CCN(Cc2cnn(C)c2)CC1 [Compound 278, 4-(ethoxymethyl)-1-((1-methyl-1H-pyrazol-4-yl)methyl)-4-(2-(2-methylthiophen-3-yl)ethyl)piperidine]	< 10
CCOC[C@@]1(CCc2cccnc2)CCN(C(C)(C)c2ccc(C)nc2)C1 [Compound 371, (S)-5-(2-(3-(ethoxymethyl)-3-(2-(pyridin-3-yl)ethyl)pyrrolidin-1-yl)propan-2-yl)-2-methylpyridine]	< 10
CCOC[C@@]1(CCc2ccc(F)cc2)CCN(Cc2ccc(C)nc2)C1 [Compound 320, (S)-5-((3-(ethoxymethyl)-3-(4-fluoro-phenethyl)pyrrolidin-1-yl)methyl)-2-methylpyridine]	< 10
CCOC[C@@]1(CCc2nccn2C)CCN(C(C)c2ccc(C)nc2)C1.Cl (stereo partly drawn) [Compound 446, 5-(1-((S)-3-(ethoxymethyl)-3-(2-(1-methyl-1H-imidazol-2-yl)ethyl)pyrrolidin-1-yl)ethyl)-2-methylpyridine HCl]	< 10
CCOC[C@@]1(CCc2ccccc2)CCN(C(C)(C)c2ccc(C)nc2)C1 [Compound 366, (S)-5-(2-(3-(ethoxymethyl)-3-phenethylpyrrolidin-1-yl)propan-2-yl)-2-methylpyridine]	< 10
CCOCC1(CCc2ccc(F)s2)CCN(Cc2ccc(C)nc2)C1 (centres unmarked) [Compound 300, 5-((3-(ethoxymethyl)-3-(2-(5-fluorothiophen-2-yl)ethyl)pyrrolidin-1-yl)methyl)-2-methylpyridine]	< 10
CCOCC1(/C=C/c2ccsc2)CCN(Cc2ccc(NC(C)=O)cc2)CC1 [Compound 167, (E)-N-(4-((4-(ethoxymethyl)-4-(2-(thiophen-3-yl)vinyl)piperidin-1-yl)methyl)phenyl)acetamide]	> 10
CCOCC1(CCc2ccccc2)CCN(Cc2ccc(NC(C)=O)cc2F)CC1 [Compound 85, N-(4-((4-(ethoxymethyl)-4-phenethylpiperidin-1-yl)methyl)-3-fluorophenyl)acetamide]	> 10
CCOC[C@@]1(CCc2nncn2C)CCN(C(=O)c2ccc(C)nc2)C1 [Compound 382]	> 10
CCOCC1(CCc2csc3ccccc23)CCN(Cc2ccc(C)nc2)C1 (centres unmarked) [Compound 302, 5-((3-(2-(benzo[b]thiophen-3-yl)ethyl)-3-(ethoxy-methyl)pyrrolidin-1-yl)methyl)-2-methylpyridine]	< 10
CCOCC1(CCc2ccccc2)CCN(Cc2ccc3c(c2)CC(=O)N3)CC1 [Compound 109, 5-((4-(ethoxymethyl)-4-phenethylpiperidin-1-yl)methyl)indolin-2-one]	> 10
CCOCC1(CCC2CC2)CCN(C(C)(C)c2ccc(C)nc2)C1 (centres unmarked) [Compound 431, 5-(2-(3-(2-cyclopropylethyl)-3-(ethoxy-methyl)pyrrolidin-1-yl)propan-2-yl)-2-methylpyridine]	< 10
CCOCC1(CCc2nccs2)CCN(Cc2ccc(NC(C)=O)cc2)CC1.Cl [Compound 103, N-(4-((4-(ethoxymethyl)-4-(2-(thiazol-2-yl)ethyl)piperidin-1-yl)methyl)phenyl)acetamide HCl]	> 10
CCOC[C@@]1(CCc2ccc(F)cc2)CCN(Cc2cccnc2)C1 [Compound 322, (S)-3-((3-(ethoxymethyl)-3-(4-fluorophenethyl)pyrrolidin-1-yl)methyl)pyridine]	< 10

SMILES	ED50 [mg/kg]
CCOCC1(CCc2ccsc2)CCN(Cc2ccc(C)nc2C)C1 (centres unmarked) [Compound 306, 3-((3-(ethoxymethyl)-3-(2-(thiophen-3-yl)ethyl)pyrrolidin-1-yl)methyl)-2,6-dimethylpyridine]	< 10
CC(c1cccnc1)N1CC[C@@](CO)(CCc2cccs2)C1 (stereo partly drawn) [Compound 414, ((3S)-1-(1-(pyridin-3-yl)ethyl)-3-(2-(thiophen-2-yl)ethyl)pyrrolidin-3-yl)methanol]	< 10
Cc1ccc(CN2CCC(CCc3ccccc3)(c3ccccn3)CC2)c(C)n1 [Compound 310, 2,6-dimethyl-3-((4-phenethyl-4-(pyridin-2-yl)piperidin-1-yl)methyl)pyridine]	< 10
CC(C)CCC(=O)Nc1ccc(CN2CCC(CCc3ccccc3)(c3ccccn3)CC2)cc1 [Compound 21, 4-methyl-N-(4-((4-phenethyl-4-(pyridin-2-yl)piperidin-1-yl)methyl)phenyl)pen-tanamide]	> 10
CCOCC1(CCc2ccccc2)CCN(Cc2cccnc2)C1 (centres unmarked) [Compound 249, 3-((3-(ethoxymethyl)-3-phenethylpyrrolidin-1-yl)methyl)pyridine]	< 10
CC(=O)Nc1ccc(CN2CCC(CCc3ccccc3)(C3CCO3)CC2)cc1 (centres unmarked) [Compound 91, N-(4-((4-(oxetan-2-yl)-4-phenethylpiperidin-1-yl)methyl)phenyl)acetamide]	< 10
CCOCC1(CCc2ccccc2)CCN(Cc2ccc(NC(=O)NC)cc2)CC1 [Compound 117, 1-(4-((4-(ethoxymethyl)-4-phenethylpiperidin-1-yl)methyl)phenyl)-3-methylurea]	> 10
CC(=O)Nc1ccc(CN2CCC(CCc3cccs3)(c3ccccn3)CC2)cc1 [Compound 183, N-(4-((4-(pyridin-2-yl)-4-(2-(thiophen-2-yl)ethyl)piperidin-1-yl)methyl)phenyl)acetamide]	> 10
CCOCC1(CCc2ccc(O)cc2)CCN(Cc2ccc(NC(C)=O)cc2)CC1.Cl [Compound 105, N-(4-((4-(ethoxymethyl)-4-(4-hydroxy-phenethyl)piperidin-1-yl)methyl)phenyl)acetamide HCl]	> 10
CCOC[C@@]1(CCc2cc(C)cs2)CCN(Cc2cccnc2)C1.Cl [Compound 337]	< 10
CCOC[C@@]1(CCc2cccc(F)c2)CCN(Cc2cccnc2)C1 [Compound 441, (S)-3-((3-(ethoxymethyl)-3-(3-fluoro-phenethyl)pyrrolidin-1-yl)methyl)pyridine]	< 10
CCOCC1(CCc2ccccc2)CCN(Cc2ccc(NC(C)=O)cn2)CC1 [Compound 92, N-(6-((4-(ethoxymethyl)-4-phenethylpiperidin-1-yl)methyl)pyridin-3-yl)acetamide]	> 10
CCOCC1(CCc2ccccc2)CCN(C(C)c2csc(C)n2)C1 (centres unmarked) [Compound 341, 4-(1-(3-(ethoxymethyl)-3-phenethylpyrrolidin-1-yl)ethyl)-2-methylthiazole]	< 10
CC(=O)Nc1ccc(CN2CCC(CCc3ccccc3)(c3ccccc3)CC2)cc1 [Compound 4]	> 10
CCOC[C@@]1(CCc2ccc(F)cc2)CCN(C(C)(C)c2ccc(C)nc2)C1 [Compound 364, (S)-5-(2-(3-(ethoxymethyl)-3-(4-fluoro-phenethyl)pyrrolidin-1-yl)propan-2-yl)-2-methylpyridine]	< 10
CCOCC1(CCc2ccccc2)CCN(Cc2ccc(NC(=O)C(C)C)cc2)CC1 [Compound 95, N-(4-((4-(ethoxymethyl)-4-phenethylpiperidin-1-yl)methyl)phenyl)iso-butyramide]	> 10
CCOCC1(CCc2ccccc2)CCN(C(C)C(O)c2ccc(C)nc2)C1 (centres unmarked) [Compound 347, 2-(3-(ethoxymethyl)-3-phenethylpyrrolidin-1-yl)-1-(6-methylpyridin-3-yl)propan-1-ol]	> 10
CC(=O)Nc1ccc(CN2CCC(/C=C/Cc3ccccc3)(c3ccccn3)CC2)cc1 [Compound 46, (E)-N-(4-((4-(3-phenylprop-1-enyl)-4-(pyridin-2-yl)piperidin-1-yl)methyl)phenyl)acetamide]	> 10
CC(=O)Nc1ccc(CN2CCC(C(=O)c3ccccc3)(c3ccccn3)CC2)cc1 [Compound 42, N-(4-((4-benzoyl-4-(pyridin-2-yl)piperidin-1-yl)methyl)phenyl)acetamide]	> 10
COc1cncc(CN2CCC(CCc3ccccc3)(C3CCCO3)C2)c1 (centres unmarked) [Compound 242, 3-methoxy-5-((3-phenethyl-3-(tetrahydrofuran-2-yl)pyrrolidin-1-yl)methyl)pyridine]	> 10
CCOCC1(CCc2ccccc2)CCN(Cc2ccc(CC(=O)O)cc2)CC1 [Compound 142, 2-(4-((4-(ethoxymethyl)-4-phenethylpiperidin-1-yl)methyl)phenyl)acetic acid]	> 10
COC[C@@]1(CCc2cccs2)CCN(Cc2cccnc2)C1 [Compound 389, (S)-3-((3-(methoxymethyl)-3-(2-(thiophen-2-yl)ethyl)pyrrolidin-1-yl)methyl)pyridine]	< 10
